What was measured:
N2a neuronal cells = test: SNP-induced ROS elevation in N2a cells; format: cell-based; conditions: TTF 2 μM; SNP 250 μM; 20 h
Description: N2a neuronal cells were pre-loaded with DCF-DA for 30 min and washed. TTF (2 μM) was added to cells before (−2 h, −1 h), concomitant with (0) or after (1 h, 2 h) the addition of SNP (250 μM). ROS levels in neuronal cells were measured 20 h after the application of SNP. The results are shown in FIG. 18 and are the mean±SEM of two different experiments (n=15).

GDNF = GDNF transcript levels in primary astrocytes (real-time PCR); format: cell-based, rat; conditions: 24 h treatment
From the text: 1. Produce a primary culture of rat brain glial cells according to the method described in “Protective effects of the essential oil of salvia fruticosa and its constituents on astrocytic susceptibility to hydrogen peroxide-induced cell death”. 2009. A. Elmann, S. Mordechay, M. Rindner, O. Larkov, M. Elkabetz, U. Ravid. Journal of agricultural and food chemistry. 57(15):6636-41; 2. Separate astrocytes from other cell types in the culture according to the method described in “Protective effects of the essential oil of salvia fruticosa and its constituents on astrocytic susceptibility to hydrogen peroxide-induced cell death”. 2009. A. Elmann, S. Mordechay, M. Rindner, O. Larkov, M. Elkabetz, U. Ravid. Journal of agricultural and food chemistry. 57(15):6636-41; 3. Plate astrocytes in 6-wells PDL-coated plastic plates at a density of 2×10^6 cells/well, in DMEM/F12 containing 5% FBS, 2 millimolar glutamine, 100 U/ml penicillin, and 100 micrograms/ml streptomycin. 4. Incubate the culture for 24 hr (37° C., 5% CO2); 5. Aspirate medium and add fresh medium to the cells. 6. […]
Astrocytes were treated with achillolide A for 24 h. […] GDNF transcripts were measured using quantitative real time PCR. The results of three technical replicates were normalized to […] and are expressed as relative quantities of GDNF transcripts. […]

TNFα = TNFα transcripts in LPS-stimulated microglial cells (real-time PCR); format: cell-based, rat; conditions: 20 μg/mL; LPS 4.5 ng/mL, 5 h
Description: RNA was extracted by the RNeasy Plus Mini Kit (Qiagen, Hilden, Germany) according to the manufacturer's instructions. Genomic DNA was removed from the RNA samples by using 50 units of RNase-free DNaseI at 37° C. for 1 h. RNA ([…]) was converted to cDNA using the Thermo Scientific Verso cDNA kit (Thermo Fisher Scientific Inc) following the manufacturer's protocol. The cDNA was used for quantitative real-time PCR amplification with TaqMan chemistry (Applied Biosystems) using Rat MMP9, TNFα, IL1β, iNOS, COX2 pre-designed TaqMan Gene Expression Assay from Applied Biosystems (Rn00579162_m1, Rn00562055_m1, Rn00580432_m1, Rn00561646_m1, Rn01483828_m1, respectively). […] All results from three technical replicates were normalized relative to α-Tubulin (Rn01532518.g1) and GAPDH (Rn01775763.g1), respectively, and expressed as relative expression ratios calculated (relative quantity, RQ) using the comparative method and based on the data that were created by the ABI PRISM 7700 Sequence Detection System (using version 1.6 software).
Procedure 23. Measurement of IL-1Beta, TNFalpha, iNOS, COX-2 and MMP-9 Transcripts in LPS-Activated Microglial Cells by Quantitative Real-Time PCR Analysis. • 1. […]
Microglial cells were treated with 20 μg/mL of achillolide A, followed by stimulation with LPS (4.5 ng/mL). […] The results are expressed as percentages relative to LPS-stimulated cells. […]

Row | Compound | effect on SNP-induced ROS elevation (N2a neuronal cells) | effect on GDNF transcript levels (GDNF) | effect on LPS-induced TNFα transcript levels (TNFα)
1 | COc1cc(-c2oc3cc(OC)c(OC)c(O)c3c(=O)c2O)ccc1O [TTF, 3,5,4′-trihydroxy-6,7,3′-trimethoxyflavone] | attenuates the elevation in ROS levels |  | 
2 | C=C1CCC2=C(CO)C(=O)O[C@H]2/C=C(\C)[C@H](OC(C)=O)CC1=O [achillolide A] |  | increases | significantly inhibited
